Experimental data from PubChem BioAssay (NCI).
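Results reflect a 48-hour exposure of cells in 96-well plates to compound at five concentrations. At the TGI there is no net growth.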

Columns and labels:
Experiment in all cases: NCI tumour cell line growth inhibition, 48 h
SR leukemia = test system: SR leukemia
HOP-92 NSCLC = test system: HOP-92 NSCLC
K-562 leukemia = test system: K-562 leukemia
A498 renal = test system: A498 renal
SK-MEL-5 melanoma = test system: SK-MEL-5 melanoma
SF-268 CNS = test system: SF-268 CNS
HOP-18 NSCLC = test system: HOP-18 NSCLC
OVCAR-3 ovarian = test system: OVCAR-3 ovarian
NCI-H23 lung = test system: NCI-H23 lung
SNB-78 CNS = test system: SNB-78 CNS
SW-620 colon = test system: SW-620 colon
SNB-19 CNS = test system: SNB-19 CNS
M19-MEL melanoma = test system: M19-MEL melanoma
OVCAR-5 ovarian = test system: OVCAR-5 ovarian
UACC-62 melanoma = test system: UACC-62 melanoma
MALME-3M melanoma = test system: MALME-3M melanoma
SNB-75 CNS = test system: SNB-75 CNS
TK-10 renal = test system: TK-10 renal
M14 melanoma = test system: M14 melanoma
SK-MEL-2 melanoma = test system: SK-MEL-2 melanoma
MOLT-4 leukemia = test system: MOLT-4 leukemia
LXFL 529 NSCLC = test system: LXFL 529 NSCLC
RXF 393 renal = test system: RXF 393 renal
UO-31 renal = test system: UO-31 renal
786-0 renal = test system: 786-0 renal
SK-MEL-28 melanoma = test system: SK-MEL-28 melanoma
KM12 colon = test system: KM12 colon
COLO 205 colon = test system: COLO 205 colon
OVCAR-8 ovarian = test system: OVCAR-8 ovarian
NCI-H226 lung = test system: NCI-H226 lung
KM20L2 colon = test system: KM20L2 colon
CAKI-1 renal = test system: CAKI-1 renal
A549 NSCLC = test system: A549 NSCLC
CCRF-CEM leukemia = test system: CCRF-CEM leukemia
LOX IMVI melanoma = test system: LOX IMVI melanoma
DMS 273 small cell lung = test system: DMS 273 small cell lung
IGROV1 ovarian = test system: IGROV1 ovarian
DLD-1 colon = test system: DLD-1 colon
HOP-62 NSCLC = test system: HOP-62 NSCLC
HCT-116 colon = test system: HCT-116 colon
HCT-15 colon = test system: HCT-15 colon
HL-60(TB) leukemia = test system: HL-60(TB) leukemia
HCC-2998 colon = test system: HCC-2998 colon
SF-295 CNS = test system: SF-295 CNS
RPMI-8226 leukemia = test system: RPMI-8226 leukemia
U251 CNS = test system: U251 CNS
EKVX NSCLC = test system: EKVX NSCLC
ACHN renal = test system: ACHN renal
SN12C renal = test system: SN12C renal
SK-OV-3 ovarian = test system: SK-OV-3 ovarian
OVCAR-4 ovarian = test system: OVCAR-4 ovarian
HT29 colon = test system: HT29 colon
NCI-H460 lung = test system: NCI-H460 lung
UACC-257 melanoma = test system: UACC-257 melanoma
NCI-H522 lung = test system: NCI-H522 lung
DMS 114 small cell lung = test system: DMS 114 small cell lung
SF-539 CNS = test system: SF-539 CNS
XF 498 CNS = test system: XF 498 CNS

Measured: TGI

CCOC(=O)C1(c2ccccc2)CCCNCC1 (configuration not stated)
88.8 µM: SR leukemia
> 100 µM: HOP-92 NSCLC | K-562 leukemia | A498 renal | SK-MEL-5 melanoma | SF-268 CNS | HOP-18 NSCLC | OVCAR-3 ovarian | NCI-H23 lung | SNB-78 CNS | SW-620 colon | SNB-19 CNS | M19-MEL melanoma | OVCAR-5 ovarian | UACC-62 melanoma | MALME-3M melanoma | SNB-75 CNS | TK-10 renal | M14 melanoma | SK-MEL-2 melanoma | MOLT-4 leukemia | LXFL 529 NSCLC | RXF 393 renal | UO-31 renal | 786-0 renal | SK-MEL-28 melanoma | KM12 colon | COLO 205 colon | OVCAR-8 ovarian | NCI-H226 lung | KM20L2 colon | CAKI-1 renal | A549 NSCLC | CCRF-CEM leukemia | LOX IMVI melanoma | DMS 273 small cell lung | IGROV1 ovarian | DLD-1 colon | HOP-62 NSCLC | HCT-116 colon | HCT-15 colon | HL-60(TB) leukemia | HCC-2998 colon | SF-295 CNS | RPMI-8226 leukemia | U251 CNS | EKVX NSCLC | ACHN renal | SN12C renal | SK-OV-3 ovarian | OVCAR-4 ovarian | HT29 colon | NCI-H460 lung | UACC-257 melanoma | NCI-H522 lung

COc1ccccc1-n1c(C)nc2ccccc2c1=O
> 100 µM: SR leukemia | HOP-92 NSCLC | K-562 leukemia | A498 renal | SK-MEL-5 melanoma | SF-268 CNS | HOP-18 NSCLC | OVCAR-3 ovarian | NCI-H23 lung | DMS 114 small cell lung | SNB-78 CNS | SW-620 colon | SF-539 CNS | SNB-19 CNS | M19-MEL melanoma | OVCAR-5 ovarian | UACC-62 melanoma | MALME-3M melanoma | SNB-75 CNS | TK-10 renal | M14 melanoma | SK-MEL-2 melanoma | MOLT-4 leukemia | LXFL 529 NSCLC | RXF 393 renal | UO-31 renal | 786-0 renal | SK-MEL-28 melanoma | KM12 colon | COLO 205 colon | OVCAR-8 ovarian | NCI-H226 lung | KM20L2 colon | CAKI-1 renal | A549 NSCLC | CCRF-CEM leukemia | LOX IMVI melanoma | DMS 273 small cell lung | IGROV1 ovarian | DLD-1 colon | HOP-62 NSCLC | HCT-116 colon | HCT-15 colon | HL-60(TB) leukemia | HCC-2998 colon | SF-295 CNS | U251 CNS | EKVX NSCLC | ACHN renal | SN12C renal | SK-OV-3 ovarian | OVCAR-4 ovarian | HT29 colon | NCI-H460 lung | UACC-257 melanoma | NCI-H522 lung

O=C1[C@H]2ON(c3ccccc3)C(c3ccc(Cl)cc3Cl)[C@H]2C(=O)N1c1ccc(Cc2ccc(N3C(=O)[C@@H]4ON(c5ccccc5)C(c5ccc(Cl)cc5Cl)[C@@H]4C3=O)cc2)cc1 (some centres not stated)
> 100 µM: SR leukemia | HOP-92 NSCLC | K-562 leukemia | A498 renal | SK-MEL-5 melanoma | SF-268 CNS | HOP-18 NSCLC | OVCAR-3 ovarian | NCI-H23 lung | DMS 114 small cell lung | SNB-78 CNS | SW-620 colon | SF-539 CNS | SNB-19 CNS | M19-MEL melanoma | OVCAR-5 ovarian | UACC-62 melanoma | MALME-3M melanoma | SNB-75 CNS | TK-10 renal | SK-MEL-2 melanoma | MOLT-4 leukemia | LXFL 529 NSCLC | UO-31 renal | 786-0 renal | SK-MEL-28 melanoma | KM12 colon | COLO 205 colon | OVCAR-8 ovarian | NCI-H226 lung | KM20L2 colon | CAKI-1 renal | A549 NSCLC | CCRF-CEM leukemia | LOX IMVI melanoma | DMS 273 small cell lung | IGROV1 ovarian | DLD-1 colon | HOP-62 NSCLC | HCT-116 colon | HCT-15 colon | HL-60(TB) leukemia | HCC-2998 colon | SF-295 CNS | RPMI-8226 leukemia | U251 CNS | EKVX NSCLC | ACHN renal | SN12C renal | SK-OV-3 ovarian | OVCAR-4 ovarian | HT29 colon | NCI-H460 lung | UACC-257 melanoma | NCI-H522 lung
69 µM: M14 melanoma

C=CCOC(C)n1c(C)c(Br)c(=O)[nH]c1=O (configuration not stated)
> 100 µM: SR leukemia | HOP-92 NSCLC | A498 renal | SK-MEL-5 melanoma | SF-268 CNS | OVCAR-3 ovarian | NCI-H23 lung | DMS 114 small cell lung | SW-620 colon | SF-539 CNS | SNB-19 CNS | M19-MEL melanoma | OVCAR-5 ovarian | UACC-62 melanoma | MALME-3M melanoma | SNB-75 CNS | TK-10 renal | SK-MEL-2 melanoma | MOLT-4 leukemia | LXFL 529 NSCLC | RXF 393 renal | UO-31 renal | 786-0 renal | SK-MEL-28 melanoma | KM12 colon | COLO 205 colon | OVCAR-8 ovarian | NCI-H226 lung | KM20L2 colon | CAKI-1 renal | A549 NSCLC | CCRF-CEM leukemia | XF 498 CNS | LOX IMVI melanoma | DMS 273 small cell lung | IGROV1 ovarian | DLD-1 colon | HCT-116 colon | HCT-15 colon | HL-60(TB) leukemia | HCC-2998 colon | SF-295 CNS | U251 CNS | EKVX NSCLC | ACHN renal | SN12C renal | SK-OV-3 ovarian | HT29 colon | NCI-H460 lung | UACC-257 melanoma | NCI-H522 lung

COC(=O)C1=C(c2cc(OC)c(OC)c(OC)c2)OC(c2ccc3c(c2)OCO3)C1 (configuration not stated)
90 µM: LXFL 529 NSCLC
29.5 µM: IGROV1 ovarian
45.7 µM: DMS 114 small cell lung
97.5 µM: HT29 colon
> 100 µM: HOP-92 NSCLC | K-562 leukemia | SK-MEL-5 melanoma | SF-268 CNS | HOP-18 NSCLC | SNB-78 CNS | SF-539 CNS | SNB-19 CNS | M19-MEL melanoma | OVCAR-5 ovarian | MALME-3M melanoma | SNB-75 CNS | TK-10 renal | M14 melanoma | MOLT-4 leukemia | RXF 393 renal | UO-31 renal | 786-0 renal | SK-MEL-28 melanoma | KM12 colon | OVCAR-8 ovarian | NCI-H226 lung | CAKI-1 renal | A549 NSCLC | CCRF-CEM leukemia | LOX IMVI melanoma | DMS 273 small cell lung | DLD-1 colon | HOP-62 NSCLC | HCT-116 colon | HCT-15 colon | HCC-2998 colon | SF-295 CNS | RPMI-8226 leukemia | U251 CNS | ACHN renal | SN12C renal | SK-OV-3 ovarian | OVCAR-4 ovarian | NCI-H460 lung | UACC-257 melanoma
62.8 µM: SR leukemia
99.2 µM: EKVX NSCLC
26.8 µM: COLO 205 colon
98.9 µM: NCI-H23 lung
52.2 µM: A498 renal
58.2 µM: KM20L2 colon
35.5 µM: UACC-62 melanoma
81.7 µM: OVCAR-3 ovarian
67.3 µM: SW-620 colon
